Measurements reported in US20260374756A1, “HETEROCYCLIC COMPOUNDS AS INHIBITORS OF MONOACYLGLYCEROL LIPASE (MAGL)” (Hoffmann-La Roche Inc., priority 2022, published 2026).

Each compound was assayed against T1, hMAGL (Homo sapiens, UniProt Q99685) (assay: 2-AG assay: MAGL inhibition, hydrolysis of 2-arachidonoylglycerol to arachidonic acid followed by mass spectrometry).
T1 sequence (Q99685 1-303): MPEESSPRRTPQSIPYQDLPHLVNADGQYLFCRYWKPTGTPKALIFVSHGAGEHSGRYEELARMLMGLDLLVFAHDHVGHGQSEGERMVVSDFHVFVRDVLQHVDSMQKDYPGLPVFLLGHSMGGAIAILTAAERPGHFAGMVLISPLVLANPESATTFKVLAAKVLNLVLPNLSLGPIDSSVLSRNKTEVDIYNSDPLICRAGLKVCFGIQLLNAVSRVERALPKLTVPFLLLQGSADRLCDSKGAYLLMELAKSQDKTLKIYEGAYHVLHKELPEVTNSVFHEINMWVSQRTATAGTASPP
Type: biochemical
Summary of the method: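 Read-out is LC-MS/MS of arachidonic acid released from 2-arachidonoylglycerol (8 μM final), normalised to d8-arachidonic acid internal standard after acetonitrile quench. Enzyme […] and compound were pre-mixed 15 min, then reacted 30 min, both at RT, in Tris/EDTA buffer with 0.01% Tween-20 and 2.5% DMSO.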
In the case of O=C(N1CC2(CC(n3cnc(C(F)(F)F)n3)C2)C1)N1CC2(CN(Cc3cc(C(F)(F)F)[nH]n3)C2)C1 [Example 241, [6-[[5-(trifluoromethyl)-1H-pyrazol-3-yl]methyl]-2,6-diazaspiro[3.3]heptan-2-yl]-[6-[3-(trifluoromethyl)-1,2,4-triazol-1-yl]-2-azaspiro[3.3]heptan-2-yl]methanone], the IC50 is reported as 18.7 nM. O=C(N1CC2(CC(n3cnc(C4CC4)n3)C2)C1)N1CC2(CN(Cc3cc(C(F)(F)F)[nH]n3)C2)C1 [Example 242, [6-(3-cyclopropyl-1,2,4-triazol-1-yl)-2-azaspiro[3.3]heptan-2-yl]-[6-[[5-(trifluoromethyl)-1H-pyrazol-3-yl]methyl]-2,6-diazaspiro[3.3]heptan-2-yl]methanone] was tested, and the IC50 was 3.73 nM. With Cn1nnc(CN2CC3(C2)CN(C(=O)N2CC4(CC(n5cnc(C(F)(F)F)n5)C4)C2)C3)c1C(F)(F)F [Example 243, [6-[[1-methyl-5-(trifluoromethyl)triazol-4-yl]methyl]-2,6-diazaspiro[3.3]heptan-2-yl]-[6-[3-(trifluoromethyl)-1,2,4-triazol-1-yl]-2-azaspiro[3.3]heptan-2-yl]methanone] the IC50 was 96.5 nM. Cn1nnc(CN2CC3(C2)CN(C(=O)N2CC4(CC(n5cnc(C6CC6)n5)C4)C2)C3)c1C(F)(F)F [Example 244, [6-(3-cyclopropyl-1,2,4-triazol-1-yl)-2-azaspiro[3.3]heptan-2-yl]-[6-[[1-methyl-5-(trifluoromethyl)triazol-4-yl]methyl]-2,6-diazaspiro[3.3]heptan-2-yl]methanone] showed an IC50 of 22.9 nM. O=C(N1CC2(CC(n3cnc(C4CC4)n3)C2)C1)N1CC2(CN(Cc3nc(-c4ccccc4)no3)C2)C1 [Example 245, [6-(3-cyclopropyl-1,2,4-triazol-1-yl)-2-azaspiro[3.3]heptan-2-yl]-[6-[(3-phenyl-1,2,4-oxadiazol-5-yl)methyl]-2,6-diazaspiro[3.3]heptan-2-yl]methanone] gave an IC50 of 1.2 nM. In the case of Cn1ncc(OC2CC3(C2)CN(C(=O)N2CC4(CC(n5cnc(C(F)(F)F)n5)C4)C2)C3)c1C(F)(F)F [Example 246, [6-[1-methyl-5-(trifluoromethyl)pyrazol-4-yl]oxy-2-azaspiro[3.3]heptan-2-yl]-[6-[3-(trifluoromethyl)-1,2,4-triazol-1-yl]-2-azaspiro[3.3]heptan-2-yl]methanone], the IC50 is reported as 3.98 nM. Work on Cn1ncc(OC2CC3(C2)CN(C(=O)N2CC4(CC(n5cnc(C6CC6)n5)C4)C2)C3)c1C(F)(F)F [Example 247, [6-(3-cyclopropyl-1,2,4-triazol-1-yl)-2-azaspiro[3.3]heptan-2-yl]-[6-[1-methyl-5-(trifluoromethyl)pyrazol-4-yl]oxy-2-azaspiro[3.3]heptan-2-yl]methanone] yielded an IC50 of 0.92 nM. With O=C(N1CC2(CC(Oc3cnn(CC(F)(F)F)c3)C2)C1)N1CC2(CC(c3cc(C4CC4)n[nH]3)C2)C1 [Example 248, [6-(3-cyclopropyl-1H-pyrazol-5-yl)-2-azaspiro[3.3]heptan-2-yl]-[6-[1-(2,2,2-trifluoroethyl)pyrazol-4-yl]oxy-2-azaspiro[3.3]heptan-2-yl]methanone] the IC50 was 19 nM. In the case of O=C(N1CC2(CC(Oc3cnn(CC(F)(F)F)c3)C2)C1)N1CC2(CC(n3cnc(C4CC4)n3)C2)C1 [Example 249, [6-(3-cyclopropyl-1,2,4-triazol-1-yl)-2-azaspiro[3.3]heptan-2-yl]-[6-[1-(2,2,2-trifluoroethyl)pyrazol-4-yl]oxy-2-azaspiro[3.3]heptan-2-yl]methanone], the IC50 is reported as 10.8 nM. Cn1ncc(CN2CC3(C2)CN(C(=O)N2CC4(CC(n5cnc(C(F)(F)F)n5)C4)C2)C3)c1S(N)(=O)=O [Example 250, 2-methyl-4-[[2-[6-[3-(trifluoromethyl)-1,2,4-triazol-1-yl]-2-azaspiro[3.3]heptane-2-carbonyl]-2,6-diazaspiro[3.3]heptan-6-yl]methyl]pyrazole-3-sulfonamide] was tested, and the IC50 was 969 nM. Cn1ncc(CN2CC3(C2)CN(C(=O)N2CC4(CC(n5cnc(C6CC6)n5)C4)C2)C3)c1S(N)(=O)=O [Example 251] gave an IC50 of 368 nM. Work on CC(C)(C)c1c[nH]c(CN2CC3(C2)CN(C(=O)N2CC4(CC(n5cnc(C(F)(F)F)n5)C4)C2)C3)n1 [Example 252, [6-[(4-tert-butyl-1H-imidazol-2-yl)methyl]-2,6-diazaspiro[3.3]heptan-2-yl]-[6-[3-(trifluoromethyl)-1,2,4-triazol-1-yl]-2-azaspiro[3.3]heptan-2-yl]methanone] yielded an IC50 of 117 nM. Compound CC(C)(C)c1c[nH]c(CN2CC3(C2)CN(C(=O)N2CC4(CC(n5cnc(C6CC6)n5)C4)C2)C3)n1 [Example 253, [6-[(4-tert-butyl-1H-imidazol-2-yl)methyl]-2,6-diazaspiro[3.3]heptan-2-yl]-[6-(3-cyclopropyl-1,2,4-triazol-1-yl)-2-azaspiro[3.3]heptan-2-yl]methanone] has an IC50 of 38.6 nM. For O=C(N1CC2(CC(Cc3cn(CC(F)(F)F)nn3)C2)C1)N1CC2(CC(n3cnc(C4(O)CC4)n3)C2)C1 [Example 254, [6-[3-(1-hydroxycyclopropyl)-1,2,4-triazol-1-yl]-2-azaspiro[3.3]heptan-2-yl]-[6-[[1-(2,2,2-trifluoroethyl)triazol-4-yl]methyl]-2-azaspiro[3.3]heptan-2-yl]methanone], the IC50 was 44.9 nM. Work on CC(C)(C)c1conc1CN1CC2(C1)CN(C(=O)N1CC3(CC(n4cnc(C(F)(F)F)n4)C3)C1)C2 [Example 255, [6-[(4-tert-butylisoxazol-3-yl)methyl]-2,6-diazaspiro[3.3]heptan-2-yl]-[6-[3-(trifluoromethyl)-1,2,4-triazol-1-yl]-2-azaspiro[3.3]heptan-2-yl]methanone] yielded an IC50 of 18.7 nM. CC(C)(C)c1conc1CN1CC2(C1)CN(C(=O)N1CC3(CC(n4cnc(C5CC5)n4)C3)C1)C2 [Example 256, [6-[(4-tert-butylisoxazol-3-yl)methyl]-2,6-diazaspiro[3.3]heptan-2-yl]-[6-(3-cyclopropyl-1,2,4-triazol-1-yl)-2-azaspiro[3.3]heptan-2-yl]methanone] was tested, and the IC50 was 2.79 nM. O=C(N1CC2(CC(n3cnc(C4CC4)n3)C2)C1)N1CC2(CN(Cc3cc[nH]n3)C2)C1 [Example 257, [6-(3-cyclopropyl-1,2,4-triazol-1-yl)-2-azaspiro[3.3]heptan-2-yl]-[6-(1H-pyrazol-3-ylmethyl)-2,6-diazaspiro[3.3]heptan-2-yl]methanone] was tested, and the IC50 was 1630 nM. Compound CC(F)(F)c1noc(CN2CC3(C2)CN(C(=O)N2CC4(CC(n5cnc(C(F)(F)F)n5)C4)C2)C3)n1 [Example 258, [6-[[3-(1,1-difluoroethyl)-1,2,4-oxadiazol-5-yl]methyl]-2,6-diazaspiro[3.3]heptan-2-yl]-[6-[3-(trifluoromethyl)-1,2,4-triazol-1-yl]-2-azaspiro[3.3]heptan-2-yl]methanone] has an IC50 of 53 nM. CC(F)(F)c1noc(CN2CC3(C2)CN(C(=O)N2CC4(CC(n5cnc(C6CC6)n5)C4)C2)C3)n1 [Example 259, [6-(3-cyclopropyl-1,2,4-triazol-1-yl)-2-azaspiro[3.3]heptan-2-yl]-[6-[[3-(1,1-difluoroethyl)-1,2,4-oxadiazol-5-yl]methyl]-2,6-diazaspiro[3.3]heptan-2-yl]methanone] was tested, and the IC50 was 8.92 nM. In the case of O=C(N1CC2(CC(n3cnc(C(F)(F)F)n3)C2)C1)N1CC2(CN(Cc3ccnn3CC(F)F)C2)C1 [Example 260, [6-[[2-(2,2-difluoroethyl)pyrazol-3-yl]methyl]-2,6-diazaspiro[3.3]heptan-2-yl]-[6-[3-(trifluoromethyl)-1,2,4-triazol-1-yl]-2-azaspiro[3.3]heptan-2-yl]methanone], the IC50 is reported as 167 nM. O=C(N1CC2(CC(n3cnc(C4CC4)n3)C2)C1)N1CC2(CN(Cc3ccnn3CC(F)F)C2)C1 [Example 261, [6-(3-cyclopropyl-1,2,4-triazol-1-yl)-2-azaspiro[3.3]heptan-2-yl]-[6-[[2-(2,2-difluoroethyl)pyrazol-3-yl]methyl]-2,6-diazaspiro[3.3]heptan-2-yl]methanone] gave an IC50 of 95.7 nM. With O=C(N1CC2(CC(n3cnc(C(F)(F)F)n3)C2)C1)N1CC2(CN(Cc3cnn(C(F)F)c3)C2)C1 [Example 262, [6-[[1-(difluoromethyl)pyrazol-4-yl]methyl]-2,6-diazaspiro[3.3]heptan-2-yl]-[6-[3-(trifluoromethyl)-1,2,4-triazol-1-yl]-2-azaspiro[3.3]heptan-2-yl]methanone] the IC50 was 539 nM. O=C(N1CC2(CC(n3cnc(C4CC4)n3)C2)C1)N1CC2(CN(Cc3cnn(C(F)F)c3)C2)C1 [Example 263, [6-(3-cyclopropyl-1,2,4-triazol-1-yl)-2-azaspiro[3.3]heptan-2-yl]-[6-[[1-(difluoromethyl)pyrazol-4-yl]methyl]-2,6-diazaspiro[3.3]heptan-2-yl]methanone] showed an IC50 of 102 nM. With O=C(N1CC2(CC(n3cnc(C(F)(F)F)n3)C2)C1)N1CC2(CN(Cc3nc(CC4CC4)no3)C2)C1 [Example 264, [6-[[3-(cyclopropylmethyl)-1,2,4-oxadiazol-5-yl]methyl]-2,6-diazaspiro[3.3]heptan-2-yl]-[6-[3-(trifluoromethyl)-1,2,4-triazol-1-yl]-2-azaspiro[3.3]heptan-2-yl]methanone] the IC50 was 76.3 nM. For O=C(N1CC2(CC(n3cnc(C4CC4)n3)C2)C1)N1CC2(CN(Cc3nc(CC4CC4)no3)C2)C1 [Example 265, [6-[[3-(cyclopropylmethyl)-1,2,4-oxadiazol-5-yl]methyl]-2,6-diazaspiro[3.3]heptan-2-yl]-[6-(3-cyclopropyl-1,2,4-triazol-1-yl)-2-azaspiro[3.3]heptan-2-yl]methanone], the IC50 was 9.94 nM.
